The numbers were not newly measured in patent publication US10130578B2, “Topical delivery of skin compositions having low pH” (Johnson & Johnson Consumer Inc., priority 2015, dated 2018), which cites them from elsewhere.

By pKa is commonly meant the negative logarithm of the acid dissociation constant.

For Hyaluronic acid, the pKa is 2.9.
